Measured values: the CheMixHub viscosity set
± gives the uncertainty stated by the source.

Assay: xn = mol fraction of the nth substance listed

CC(C)(C)N + CC(=O)OCCC(C)C
303.15 K, 101 kPa
Conditions	viscosity [mPa·s]
x1 = 0.1524	0.6892 ± 0.0057
x1 = 0.239	0.6687 ± 0.0055
x1 = 0.3353	0.6526 ± 0.0054
x1 = 0.4584	0.6341 ± 0.0053
x1 = 0.5807	0.5993 ± 0.005
x1 = 0.6423	0.5804 ± 0.0049
x1 = 0.7298	0.5464 ± 0.0046
x1 = 0.8649	0.4955 ± 0.0043

CCCCCCCCO + CS(C)=O
101 kPa
Conditions	viscosity [mPa·s]
303.15 K, x2 = 0.1888	4.267 ± 0.052
303.15 K, x2 = 0.3612	3.296 ± 0.041
303.15 K, x2 = 0.519	2.593 ± 0.032
303.15 K, x2 = 0.6642	2.26 ± 0.028
303.15 K, x2 = 0.7982	1.965 ± 0.025
303.15 K, x2 = 0.9223	1.757 ± 0.022
313 K, x2 = 0.1243	3.69 ± 0.096
313 K, x2 = 0.2177	3.282 ± 0.086
313 K, x2 = 0.4192	2.668 ± 0.069
313 K, x2 = 0.5194	2.442 ± 0.063
313 K, x2 = 0.6221	2.22 ± 0.058
313 K, x2 = 0.714	2.034 ± 0.053
313 K, x2 = 0.8145	1.894 ± 0.049
313 K, x2 = 0.902	1.664 ± 0.043

CCCCCCCCO + CCCCCC
298.15 K, 101.33 kPa
Conditions	viscosity [mPa·s]
x2 = 0.1657	4.313 ± 0.032
x2 = 0.2119	3.677 ± 0.028
x2 = 0.274	2.968 ± 0.023
x2 = 0.3717	2.093 ± 0.016
x2 = 0.4775	1.432 ± 0.012
x2 = 0.5556	1.096 ± 0.009
x2 = 0.6659	0.759 ± 0.007
x2 = 0.7638	0.559 ± 0.005
x2 = 0.8406	0.443 ± 0.004
x2 = 0.9211	0.35 ± 0.004
x2 = 0.9597	0.319 ± 0.004

BrC(Br)Br + CCCC#N
298.15 K, 101 kPa
Conditions	viscosity [mPa·s]
x1 = 0.09373	0.6216 ± 0.041
x1 = 0.2439	0.8407 ± 0.041
x1 = 0.3911	1.021 ± 0.042
x1 = 0.4986	1.169 ± 0.042
x1 = 0.7	1.46 ± 0.043
x1 = 0.9	1.724 ± 0.045

CCCCCCCCO + NCCO
viscosity [mPa·s], 101.3 kPa
Conditions	x2 = 0.1	x2 = 0.2	x2 = 0.3	x2 = 0.4	x2 = 0.5	x2 = 0.6	x2 = 0.7	x2 = 0.8	x2 = 0.9
303.15 K	6.48 ± 0.11	6.8 ± 0.12	7.36 ± 0.13	8.14 ± 0.14	9.01 ± 0.16	9.97 ± 0.18	11 ± 0.2	12.1 ± 0.2	13.4 ± 0.2
313.15 K	4.68 ± 0.08	4.93 ± 0.09	5.28 ± 0.09	5.77 ± 0.1	6.27 ± 0.11	6.83 ± 0.12	7.48 ± 0.13	8.16 ± 0.14	8.98 ± 0.16
323.15 K	3.49 ± 0.06	3.68 ± 0.07	3.92 ± 0.07	4.23 ± 0.08	4.55 ± 0.08	4.9 ± 0.09	5.34 ± 0.1	5.79 ± 0.1	6.29 ± 0.11
